“And” between values parts separate entries of the source, which are not always exact repeats. Equal entries are not always repeated.
Experiments:
[1] = molecular target: Anti-cotinine antibody (SEQ ID NO: 11 / SEQ ID NO: 12, rabbit variable region with human IgG1 Fc domain); test: Binding of anti-cotinine antibody to ARM compounds by SPR, Biacore T200, 37° C. (Example 202); conditions: pH 7.4, rabbit variable region/human IgG1 Fc antibody captured on protein A
Method in brief: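 Run at 37° C. in 10 mM HEPES pH 7.4, 150 mM NaCl, 0.005% P20, 1% DMSO. Compound titrated from 200 nM (five 3-fold steps) over protein A-captured antibody, with 200/2000 s association/dissociation. 1:1 kinetic fit gave kon, koff, Kd and residence time (1/koff); pKd averaged where runs repeated.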

[2] = system: endogenous target monocytes in human PBMC; test: PBMC ex vivo monocyte depletion flow cytometry assay (Example 200); format: cell-based; conditions: with anti-cotinine antibody SEQ ID NO: 11/12, 18-24 hours, read-out: Ex Vivo Depletion Assay pEC50 (converted)
Procedure: A human PBMC (peripheral blood mononuclear cells) monocyte depletion flow cytometry assay was developed to screen compounds in a 384-well plate format. This assay incorporated endogenous natural killer cells to deplete endogenous target monocytes.
To screen compounds in the human PBMC monocyte depletion flow cytometry assay, 11-point dose-response curves were made from 1 mM stocks in neat DMSO by serially diluting an ARM compound of Formula (I) four-fold into a 384-well plate row-wise. These serially diluted compounds were then stamped into a flat bottom polypropylene 384-well plate (Greiner Bio-One) at 100 nL/well. Fifty microliters of 30 μg/mL anti-cotinine antibody having a heavy chain sequence of SEQ ID NO: 11 and a light chain sequence of SEQ ID NO: 12 (rabbit variable region with human IgG1 Fc domain containing a DE mutation (S239D/1332E)) that had been diluted in assay medium (RPMI 1640 (Gibco) containing 10% fetal bovine serum (Gibco), 1% Glutamax (Gibco) and 1% sodium pyruvate (Corning) was added to the wells of the plate. The plate was centrifuged for 1 min at 500 rpm (revolutions per minute) and then shaken for 5 min at room temperature. The plate was incubated for 15 minutes at 37° C./5% CO2.
Frozen PBMC cells (HemaCare BioResearch) were thawed and centrifuged at 1,200 rpm for 4 minutes. The cells were diluted to a cell density of 2×10^6 cells/mL in assay medium. Fifty microliters of the diluted cells were added to the wells of the plate. The plate was centrifuged for 1 min at 500 rpm and incubated for 18-24 hours at 37° C./5% CO2.
After 18-24 hours incubation, 2 μL of 6.25 μg human FC block (BD Pharmingen) that was diluted in assay medium was added to the wells of the plate. The plate was centrifuged for 1 minute at 500 rpm and then incubated at room temperature for 15 minutes. Five microliters of 750 nM Helix NP NIR (Biolegend) that had been diluted in assay medium was added to the wells of the plate. Nine microliters of antibody cocktail containing 1/5 diluted fluorescein isothiocyanate (FITC) labeled anti-CD45 antibody (Beckman Coulter), PC7 labeled anti-CD14 antibody (Beckman Coulter) and phycoerythrin (PE) anti-CD4 antibody (Beckman Coulter) was then added to the wells of the plate. The plate was centrifuged for 1 min at 500 rpm and incubated for 30 minutes at 4-8° C. Samples from the plate were run on BD FACS Canto II flow cytometer and data was analyzed using FlowJo software.
ARMs compounds of Formula (I) of the invention were tested for the ability to deplete monocytes in the above assay in one or more experimental runs and the results are shown in Table 3 below. Potency of the compounds of the invention is reported as a pEC50 value. The pEC50 value is the negative log of the EC50 value, wherein the EC50 value is the half maximal effective concentration measured in molar (M). For compounds tested in more than one experimental run, the pEC50 value is reported as an average or as the individual values measured

[3] = molecular target: T1, CHOK1 cells engineered to overexpress human CCR2 (Homo sapiens, UniProt P41597); test: Antibody dependent cellular cytotoxicity (ADCC) reporter assay (Example 199); format: cell-based; conditions: with anti-cotinine antibody SEQ ID NO: 11/12; CHOK1-human CCR2 target cells, Jurkat FcγRIIIa NFAT-luciferase reporter cells; 12-18 hours
T1 construct: expressed in transfected cells; host or cells: CHOK1 cells
Method in brief: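 Potency is reported as pEC50 from a nonlinear fit, averaged over runs, using luciferase signal divided by that of compound-free wells. The readout comes from NFAT-luciferase Jurkat cells expressing FcγRIIIa, mixed for 12–18 h with human CCR2-overexpressing CHOK1 cells, 1 pM–10 μM ARM compound and 0.01–200 μg/mL Fc-enhanced anti-cotinine IgG1.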

[4] = molecular target: human alpha1 nicotinic acetylcholine (nACh) receptor (Homo sapiens, UniProt P02708+Q07001); test: Nicotinic acetylcholine receptor antagonism assay, IONFlux automated patch clamp (Example 203); format: cell-based; conditions: for Emax at 10 µM: maximum percentage antagonism at maximum concentration tested 10 μM, read-out: Maximum Response (%); for IC50: nAChR antagonism, ACh stimulated, patch clamp
Chain of human alpha1 nicotinic acetylcholine (nACh) receptor (P02708 21-457): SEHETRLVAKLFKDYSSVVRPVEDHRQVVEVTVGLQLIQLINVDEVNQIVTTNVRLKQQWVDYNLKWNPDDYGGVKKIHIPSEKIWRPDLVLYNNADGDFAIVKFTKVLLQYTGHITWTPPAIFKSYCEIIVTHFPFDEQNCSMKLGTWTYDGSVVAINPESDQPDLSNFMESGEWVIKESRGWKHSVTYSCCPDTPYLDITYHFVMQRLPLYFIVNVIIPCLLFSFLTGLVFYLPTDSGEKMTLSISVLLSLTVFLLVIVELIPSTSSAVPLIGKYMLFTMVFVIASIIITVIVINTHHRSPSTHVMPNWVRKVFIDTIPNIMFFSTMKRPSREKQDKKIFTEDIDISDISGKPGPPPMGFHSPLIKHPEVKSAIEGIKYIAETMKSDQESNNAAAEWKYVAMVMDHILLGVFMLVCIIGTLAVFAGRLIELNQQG
Chain of human alpha1 nicotinic acetylcholine (nACh) receptor (P11230 24-501 partner): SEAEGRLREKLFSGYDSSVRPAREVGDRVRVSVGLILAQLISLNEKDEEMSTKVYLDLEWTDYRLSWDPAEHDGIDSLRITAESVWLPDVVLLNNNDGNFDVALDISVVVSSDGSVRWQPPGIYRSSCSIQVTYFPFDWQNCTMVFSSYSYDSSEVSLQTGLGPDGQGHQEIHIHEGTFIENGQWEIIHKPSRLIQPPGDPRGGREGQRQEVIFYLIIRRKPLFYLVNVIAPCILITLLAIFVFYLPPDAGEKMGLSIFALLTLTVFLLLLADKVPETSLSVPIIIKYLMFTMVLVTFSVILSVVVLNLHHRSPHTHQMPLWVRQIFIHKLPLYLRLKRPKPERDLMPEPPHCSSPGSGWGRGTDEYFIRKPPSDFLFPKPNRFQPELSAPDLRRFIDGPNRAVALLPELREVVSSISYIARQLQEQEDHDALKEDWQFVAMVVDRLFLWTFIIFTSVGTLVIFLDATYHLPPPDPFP
Chain of human alpha1 nicotinic acetylcholine (nACh) receptor (Q07001 22-517): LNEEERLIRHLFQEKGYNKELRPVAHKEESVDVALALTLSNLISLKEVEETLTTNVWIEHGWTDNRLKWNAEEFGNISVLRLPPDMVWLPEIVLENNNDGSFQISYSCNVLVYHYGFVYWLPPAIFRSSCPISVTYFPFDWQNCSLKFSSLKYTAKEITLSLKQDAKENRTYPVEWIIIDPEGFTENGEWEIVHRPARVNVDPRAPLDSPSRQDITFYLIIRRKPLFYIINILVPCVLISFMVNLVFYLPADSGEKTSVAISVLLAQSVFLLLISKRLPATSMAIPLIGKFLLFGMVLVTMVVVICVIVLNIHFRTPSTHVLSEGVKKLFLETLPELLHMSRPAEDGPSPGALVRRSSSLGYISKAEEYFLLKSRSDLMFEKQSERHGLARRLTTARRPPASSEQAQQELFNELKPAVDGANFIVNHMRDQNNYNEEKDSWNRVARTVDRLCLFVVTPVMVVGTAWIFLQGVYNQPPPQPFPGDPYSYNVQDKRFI
Method in brief: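 Human α1 nAChR-expressing cells were preincubated with compound (top 10 μM or 100 μM), then stimulated with 10 mM ACh; peak currents were recorded by IONFlux automated patch clamp. Percent inhibition versus ACh-alone control was vehicle- and rundown-corrected, then fitted to give IC50, with maximal antagonism at the top concentration; recordings with control current <500 pA were excluded.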

[5] = system: CCR2 expressing cells (CD11b+Ly6c+ Hi) in peripheral blood; test: In vivo depletion assay, flow cytometry of peripheral blood (Example 201); parameters: species or system Human CCR2 (hCCR2) knock-in mice (C57 background); conditions: hCCR2 knock-in mice; IV 0.1 mpk compound + 10 mpk anti-cotinine antibody (SEQ ID NO: 13/14); peripheral blood at 48 hr
Procedure: Stock solution preparation: Stock solutions of compounds of Formula (I) were prepared at 20 mg/mL and 100 mg/mL in DMSO for PK/PD and dose tolerability studies respectively. Stock solutions were stored at −20° C. until further usage.
Formulations preparation: On the day of experiment, the stock solution of the compound of Formula (I) was removed from storage at −20° C. and thawed at room temperature. Anti-cotinine antibody having a heavy chain sequence of SEQ ID NO: 13 and a light chain sequence of SEQ ID NO: 14 (rabbit variable region sequence with mouse IgG2a Fc domain), if required was removed from storage at −80° C. and thawed at room temperature. Antibody vials were immediately transferred into wet ice after thawing. Compounds of Formula (I) were further diluted in DMSO as per experimental requirements.
Formulation composition: The formulation composition was Saline:DMSO:PBS. Saline was added based on the quantity required and then stock solution of the compound of Formula (I) prepared in DMSO, followed by addition of antibody in PBS. Formulations were incubated at room temperature for 30 minutes before administration to the mouse. DMSO was used at 1 to 2% (v/v) in the final formulation.
After bleeding, each mouse was sacrificed by cervical dislocation.
CCR2 depletion in peripheral blood was determined by flow cytometry. Briefly, peripheral blood was collected from all animals at the end of study termination and processed. Blood samples were lysed using 1× RBC Lysis buffer and the resulting cell pellet was washed twice in FACS buffer (HBSS containing 5% FBS). Cells were subjected to Fc blocking using mouse Fc block from Biolegend (Trustain, anti-mouse CD16/32, Cat: 101319) to block non-specific binding followed by surface staining for immune markers (CD45, CD3, CD11b, Ly6C, human CCR2). Surface staining was done for 30 minutes in ice and cells were washed twice to remove unbound antibodies. Cells were stained with 7AAD to determine viability and acquired on BD FACSVerse flow cytometer. Appropriate FMO controls and single-color controls were included in the experiment for gating and compensation respectively.
Percent depletion of CD11b+Ly6c+ Hi cells and CCR2 expression for the different treatment groups was determined.

pKd of Antibody for ARM Compound of Formula (I) [1]	Emax at 10 µM [4] [%]	IC50 [4] [nM]	Structure (SMILES)	EC50 [2] [nM]	ADCC Reporter Assay pEC50 [3]	% Depletion of CCR2 expressing cells [5] [%]
9.2495	–	–	CN1C(=O)C[C@H](C(=O)NCCCOCCCNC(=O)CCCC(=O)NC2CCC(C(=O)N[C@@H]3C[C@H](NC(C)(C)C)CC[C@@H]3N3CC[C@H](Nc4ncnc5ccc(C(F)(F)F)cc45)C3=O)CC2)[C@H]1c1cccnc1 (stereo partly drawn) [Example 22]	0.631	9 and 9.3	–
9.4525	24.7	> 10000	CC(C)N(C)[C@@H]1CCC(N2CC[C@H](Nc3ncnc4ccc(C(F)(F)F)cc34)C2=O)[C@H](NC(=O)CCOCCOCCOCCOCCOCCNC(=O)[C@H]2CC(=O)N(C)[C@@H]2c2cccnc2)C1 (stereo partly drawn) [Example 40]	5.01	–	–
9.3615	20.1	> 10000	CC(C)N(C)[C@@H]1CCC(N2CC[C@H](Nc3ncnc4ccc(C(F)(F)F)cc34)C2=O)[C@H](NC(=O)CCOCCOCCOCCOCCOCCOCCNC(=O)[C@H]2CC(=O)N(C)[C@@H]2c2cccnc2)C1 (stereo partly drawn) [Example 41]	2.51	–	–
9.321	–	–	CC(C)N(C)[C@@H]1CC[C@H](N2CC[C@H](Nc3ncnc4ccc(C(F)(F)F)cc34)C2=O)[C@H](NC2CCN(C(=O)CCOCCOCCOCCOCCNC(=O)[C@H]3CC(=O)N(C)[C@@H]3c3cccnc3)CC2)C1 [Example 69]	1.58	–	98.59
–	–	–	CC(C)N(C)[C@@H]1CC[C@H](N2CC[C@H](Nc3ncnc4ccc(C(F)(F)F)cc34)C2=O)[C@H](NC(=O)[C@H]2CC[C@H](N3CCN(S(=O)(=O)C4CCN(C(=O)[C@H](C)NC(=O)[C@H]5CC(=O)N(C)[C@@H]5c5cccnc5)CC4)CC3)CC2)C1 [Example 70, (2S,3S)-N-((S)-1-(4-((4-((1R,4S)-4-(((1R,2S,5R)-5-(isopropyl(methyl)amino)-2-((S)-2-oxo-3-((6-(trifluoromethyl)quinazolin-4-yl)amino)pyrrolidin-1-yl)cyclohexyl)carbamoyl)cyclohexyl)piperazin-1-yl)sulfonyl)piperidin-1-yl)-1-oxopropan-2-yl)-1-methyl-5-oxo-2-(pyridin-3-yl)pyrrolidine-3-carboxamide]	0.1	–	30.51
–	–	–	CC(C)N(C)[C@@H]1CC[C@H](N2CC[C@H](Nc3ncnc4ccc(C(F)(F)F)cc34)C2=O)[C@H](NC(=O)[C@H]2CC[C@@H](N3CCN(S(=O)(=O)C4CCN(C(=O)[C@H](C)NC(=O)[C@H]5CC(=O)N(C)[C@@H]5c5cccnc5)CC4)CC3)CC2)C1 [compound 71]	0.794	–	35.25
